# According to patent US20050239784A1 (priority 2002, published 2005):
# Read-outs that look alike come from different tables or passages of the source.
# Legend:
# CDK4 = CDK4 (Homo sapiens, UniProt P11802); assay: biochemical
# AKT3 [1] = target: T1, AKT3 (Homo sapiens, UniProt Q9Y243); assay: biochemical
# Target sequence in this assay (Q9Y243 whole entry, species assumed): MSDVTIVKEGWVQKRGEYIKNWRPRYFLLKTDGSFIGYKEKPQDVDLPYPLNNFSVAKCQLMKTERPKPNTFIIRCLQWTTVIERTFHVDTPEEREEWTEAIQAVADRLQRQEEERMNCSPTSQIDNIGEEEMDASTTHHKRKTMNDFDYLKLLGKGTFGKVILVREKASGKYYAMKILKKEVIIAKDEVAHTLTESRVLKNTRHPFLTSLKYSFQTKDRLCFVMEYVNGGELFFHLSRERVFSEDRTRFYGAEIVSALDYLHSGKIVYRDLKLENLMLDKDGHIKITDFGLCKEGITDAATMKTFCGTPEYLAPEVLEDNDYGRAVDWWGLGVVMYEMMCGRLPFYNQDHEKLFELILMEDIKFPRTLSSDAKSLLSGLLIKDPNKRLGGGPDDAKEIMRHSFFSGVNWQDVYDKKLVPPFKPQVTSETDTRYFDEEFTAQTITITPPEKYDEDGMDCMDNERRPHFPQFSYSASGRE
# A2780 cells = assay: Cytotox survival of A2780 cells after 3 days; assay type: cell-based; settings: for IC50: Homo sapiens, A2780, 72 h
# Description: In an alternative assay, the growth inhibitory effect of the compounds was tested on the ovarian carcinoma cell line A2780 using art known cytotoxicity assays such as LIVE/DEAD (Molecular Probes) MTT.
# physchem = settings: pH 7.4, aqueous buffer, kinetic from dmso stock
# AKT3 [2] = target: T1, AKT3; assay: cell-based
# Target sequence in this assay (Q9Y243 whole entry): as the sequence (Q9Y243 whole entry, species assumed) above
# CDC25B = target: T2, CDC25B (Homo sapiens, UniProt P30305); assay: biochemical
# T2 sequence (P30305 1-580): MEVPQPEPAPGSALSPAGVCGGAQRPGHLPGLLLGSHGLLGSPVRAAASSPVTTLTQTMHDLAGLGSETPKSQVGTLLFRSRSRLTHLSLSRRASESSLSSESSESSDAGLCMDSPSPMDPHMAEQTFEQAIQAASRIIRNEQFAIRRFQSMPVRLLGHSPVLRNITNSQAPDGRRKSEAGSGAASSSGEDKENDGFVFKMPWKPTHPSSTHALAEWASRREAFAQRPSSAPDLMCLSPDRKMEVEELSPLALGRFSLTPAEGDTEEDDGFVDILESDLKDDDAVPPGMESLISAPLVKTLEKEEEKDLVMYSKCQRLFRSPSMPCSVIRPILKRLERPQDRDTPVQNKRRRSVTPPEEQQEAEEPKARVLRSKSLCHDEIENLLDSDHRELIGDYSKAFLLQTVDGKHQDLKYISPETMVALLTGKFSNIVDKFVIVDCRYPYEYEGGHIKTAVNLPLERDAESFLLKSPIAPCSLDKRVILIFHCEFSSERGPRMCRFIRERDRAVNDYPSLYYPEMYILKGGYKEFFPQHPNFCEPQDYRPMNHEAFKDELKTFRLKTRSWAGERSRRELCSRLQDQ
# [3] = CDK4 SPA (Ex. C.1): pIC50 values
# [4] = AKT3 pep. (Ex. C.3): pIC50 values
# [5] = A2780 cells, 3 days, read-out: Cytotox survival of A2780 cells after 3 days - pIC50 values (converted)
# [6] = read-out: CDK4 SPA (Ex. C.1): pIC50 values (converted)
# [7] = read-out: AKT3 pep. (Ex. C.3): pIC50 values (converted)
# [8] = read-out: AKT cel (Ex. C.6): pIC50 values (converted)
# [9] = read-out: CDC25B WT (Ex. C.5): pIC50 values (converted)
# [10] = read-out: Cytotox survival of A2780 cells after 3 days - pIC50 values, A2780 cells, 3 days (converted)
# [11] = AKT cel (Ex. C.6): pIC50 values, MDA-MB 231 cells, phosphorylated MAPK read-out
# [12] = CDC25B WT (Ex. C.5): pIC50 values
# CDK4, sequence (P11802 whole entry, species assumed): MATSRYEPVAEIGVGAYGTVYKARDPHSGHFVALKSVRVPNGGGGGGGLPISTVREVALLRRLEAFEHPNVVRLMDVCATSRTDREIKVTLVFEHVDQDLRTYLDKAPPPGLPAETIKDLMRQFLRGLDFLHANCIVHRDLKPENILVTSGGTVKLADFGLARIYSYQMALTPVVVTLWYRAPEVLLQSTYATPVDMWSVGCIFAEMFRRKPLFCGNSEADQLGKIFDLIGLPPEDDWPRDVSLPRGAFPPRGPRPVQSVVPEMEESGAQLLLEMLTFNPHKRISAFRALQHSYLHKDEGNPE
# CDK4, sequence (P24385 whole entry partner, species assumed): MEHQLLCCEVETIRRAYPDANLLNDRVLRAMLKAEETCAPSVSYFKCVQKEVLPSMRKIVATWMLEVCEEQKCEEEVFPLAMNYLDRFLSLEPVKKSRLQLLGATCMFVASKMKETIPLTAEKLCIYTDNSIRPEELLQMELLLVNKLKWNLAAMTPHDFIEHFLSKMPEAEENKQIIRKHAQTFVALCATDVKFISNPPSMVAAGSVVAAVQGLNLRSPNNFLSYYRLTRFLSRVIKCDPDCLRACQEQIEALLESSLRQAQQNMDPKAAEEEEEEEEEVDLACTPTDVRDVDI
Compound,IC50 (CDK4; [3]),IC50 (AKT3 [1]; [4]),IC50 (A2780 cells; [5]),solubility (physchem),IC50 (CDK4; [6]),IC50 (AKT3 [1]; [7]),IC50 (AKT3 [2]; [8]),"Cytotox survival of A2780 cells after 3 days - pIC50 values (A2780 cells; A2780 cells, 3 days)",IC50 (CDC25B; [9]),IC50 (A2780 cells; [10]),IC50 (AKT3 [2]; [11]),IC50 (CDC25B; [12])
CC(C)n1nc(-c2ccc(OCCN3CCOCC3)c(Cl)c2)nc2c(=O)n(C)c(=O)nc1-2 [Compound 74],161 nM,111 nM,190 nM,160 to 1800 µM,,,,,,,,
COc1cc(-c2nc3c(=O)n(C)c(=O)nc-3n(C(C)C)n2)cc(OC)c1OCCN1CCCCC1 [Compound 77],,,,,293 nM,240 nM,> 1000 nM,6.785,43.3 nM,,,
COc1cc(-c2nc3c(=O)n(C)c(=O)nc-3n(C(C)C)n2)ccc1OCCN1CCCCC1 [Compound 78],,,,> 1800 µM,513 nM,262 nM,301 nM,,44 nM,269 nM,,
CC(C)n1nc(-c2ccc(OCCN3CCN(S(=O)(=O)N(C)C)CC3)cc2)nc2c(=O)n(C)c(=O)nc1-2 [Compound 79],,,,160 to 1800 µM,404 nM,282 nM,≥ 3000 nM,,26.2 nM,513 nM,,
CC(C)n1nc(-c2ccc(OCCN3CCN(C(=O)OC(C)(C)C)CC3)cc2)nc2c(=O)n(C)c(=O)nc1-2 [Compound 80],,,,160 to 1800 µM,372 nM,395 nM,> 300 nM,,32.4 nM,390 nM,,
CC(C)n1nc(-c2ccc(OCCCN3CCCCC3)cc2)nc2c(=O)n(C)c(=O)nc1-2 [Compound 81],,,,> 1800 µM,194 nM,252 nM,> 1000 nM,,38.9 nM,132 nM,,
CC(C)n1nc(-c2ccc(OCCN3CCNCC3)cc2)nc2c(=O)n(C)c(=O)nc1-2 [Compound 82],,,,> 1800 µM,300 nM,339 nM,216 nM,,50.2 nM,375 nM,,
CC(C)n1nc(-c2ccc(OCCCN3CCOCC3)cc2)nc2c(=O)n(C)c(=O)nc1-2 [Compound 84],586 nM,280 nM,216 nM,> 1800 µM,,,,,,,> 1000 nM,38.3 nM
COc1cc(-c2nc3c(=O)n(C)c(=O)nc-3n(C(C)C)n2)cc(OC)c1OCCN1CCN(C)CC1 [Compound 85],,,,> 1800 µM,322 nM,345 nM,> 1000 nM,,48.4 nM,228 nM,,
COc1cc(-c2nc3c(=O)n(C)c(=O)nc-3n(C(C)C)n2)cc(OC)c1OS(=O)(=O)N(C)C [Compound 86],,,,160 to 1800 µM,272 nM,273 nM,> 1000 nM,,38.6 nM,264 nM,,
CC(C)n1nc(-c2ccc(OS(=O)(=O)N(C)C)cc2)nc2c(=O)n(C)c(=O)nc1-2 [Compound 87],274 nM,410 nM,,160 to 1800 µM,,,,,,198 nM,> 1000 nM,48.3 nM
CC(C)n1nc(-c2ccc(OCCN3CCCCC3)c(Cl)c2)nc2c(=O)n(C)c(=O)nc1-2 [Compound 88],,,,160 to 1800 µM,267 nM,239 nM,> 1000 nM,,25.8 nM,168 nM,,
COc1cc(-c2nc3c(=O)n(C)c(=O)nc-3n(C(C)C)n2)cc(OC)c1OCCN1CCN(C(=O)OC(C)(C)C)CC1 [Compound 89],,,,> 1800 µM,506 nM,352 nM,> 1000 nM,,35.5 nM,527 nM,,
CC(C)n1nc(-c2ccc(OCCCN3CCCCC3)cc2)nc2c(=O)n(C)c(=O)nc1-2 [Compound 90],,,,,,181 nM,,6.842,27.9 nM,,,
CC(C)n1nc(-c2ccc(CNCCc3cccnc3)cc2)nc2c(=O)n(C)c(=O)nc1-2 [Compound 93],193 nM,279 nM,272 nM,> 1800 µM,,,,,,,> 1000 nM,49.1 nM
CC(C)n1nc(-c2ccc(OCCN3CCCCC3)cc2)nc2c(=O)n(C)c(=O)nc1-2 [Compound 94],,,,> 1800 µM,173 nM,165 nM,,,36.4 nM,163 nM,,

Compound,IC50 (CDK4; [3]),IC50 (AKT3 [1]; [4]),IC50 (A2780 cells; [5]),solubility (physchem),IC50 (CDK4; [6]),IC50 (AKT3 [1]; [7]),IC50 (AKT3 [2]; [8]),"Cytotox survival of A2780 cells after 3 days - pIC50 values (A2780 cells; A2780 cells, 3 days)",IC50 (CDC25B; [9]),IC50 (A2780 cells; [10]),IC50 (AKT3 [2]; [11]),IC50 (CDC25B; [12])
CC(C)n1nc(-c2ccc(OCCN(C)S(=O)(=O)N(C)C)cc2)nc2c(=O)n(C)c(=O)nc1-2 [Compound 95],,,,160 to 1800 µM,321 nM,190 nM,> 3000 nM,,41.4 nM,481 nM,,
COc1cc(-c2nc3c(=O)n(C)c(=O)nc-3n(C(C)C)n2)cc(OC)c1OCCN1CCN(S(N)(=O)=O)CC1 [Compound 96],,,,> 1800 µM,205 nM,175 nM,> 3000 nM,,45 nM,492 nM,,
CC(C)n1nc(-c2ccc(OCCN3CCN(C)CC3)cc2)nc2c(=O)n(C)c(=O)nc1-2 [Compound 97],,,,> 1800 µM,164 nM,198 nM,> 3000 nM,,42.7 nM,292 nM,,
CC(C)n1nc(-c2ccc(CNC3CCNCC3)cc2)nc2c(=O)n(C)c(=O)nc1-2 [Compound 98],,,,> 1800 µM,200 nM,194 nM,> 3000 nM,,58.5 nM,488 nM,,
CC(C)n1nc(-c2ccc(CNC3CCN(S(=O)(=O)N(C)C)CC3)cc2)nc2c(=O)n(C)c(=O)nc1-2 [Compound 99],,,,> 1800 µM,141 nM,170 nM,432 nM,,30.3 nM,120 nM,,
COCCNCc1ccc(-c2nc3c(=O)n(C)c(=O)nc-3n(C(C)C)n2)cc1 [Compound 100],157 nM,178 nM,246 nM,> 1800 µM,,,,,,,407 nM,49.9 nM
CC(C)n1nc(-c2ccc(OCCN)cc2)nc2c(=O)n(C)c(=O)nc1-2 [Compound 101],230 nM,232 nM,579 nM,> 1800 µM,,,,,,,513 nM,53.5 nM
CC(C)n1nc(-c2ccc(CN3CCN(S(N)(=O)=O)CC3)cc2)nc2c(=O)n(C)c(=O)nc1-2 [Compound 102],79.8 nM,172 nM,912 nM,> 1800 µM,,,,,,,> 3020 nM,36.5 nM
CC(C)n1nc(-c2ccc(CN3CCN(S(=O)(=O)N(C)C)CC3)cc2)nc2c(=O)n(C)c(=O)nc1-2 [Compound 103],,,,160 to 1800 µM,357 nM,129 nM,> 3020 nM,,22.6 nM,425 nM,,
CC(C)n1nc(-c2ccc(OCCN3CCNCC3)c(Cl)c2)nc2c(=O)n(C)c(=O)nc1-2 [Compound 104],,,,> 1800 µM,128 nM,121 nM,726 nM,,30.2 nM,214 nM,,
COc1cc(-c2nc3c(=O)n(C)c(=O)nc-3n(C(C)C)n2)cc(OC)c1OCCN(C)C1CCNCC1 [Compound 105],,,,> 1800 µM,153 nM,138 nM,> 3020 nM,,35.6 nM,< 3010 nM,,
COc1cc(-c2nc3c(=O)n(C)c(=O)nc-3n(C(C)C)n2)cc(OC)c1OCCN1CCCCC1 [Compound 106],,,,> 1800 µM,142 nM,117 nM,> 3020 nM,6.074,33.3 nM,,,
CC(C)n1nc(-c2ccc(OCCNS(=O)(=O)N(C)C)cc2)nc2c(=O)n(C)c(=O)nc1-2 [Compound 109],,,,160 to 1800 µM,166 nM,155 nM,> 3020 nM,,,594 nM,,
CC(C)n1nc(-c2ccc(CN(C)CCO)cc2)nc2c(=O)n(C)c(=O)nc1-2 [Compound 111],126 nM,161 nM,157 nM,> 1800 µM,,,,,,,791 nM,31 nM
COc1cc(-c2nc3c(=O)n(C)c(=O)nc-3n(C3CCNCC3)n2)ccc1OCCN1CCCCC1 [Compound 152],,,,,187 nM,275 nM,≥ 3000 nM,,25.4 nM,630 nM,,
Cn1c(=O)nc2n(C3CCNCC3)nc(-c3ccc(CCCN4CCCCC4)cc3)nc-2c1=O [Compound 155],72.6 nM,232 nM,,,,,,,,177 nM,469 nM,36.9 nM
